Measurements: ChEMBL document CHEMBL2203090, “Synthesis and Evaluation of 5-Fluoro-2-aryloxazolo[5,4-b]pyridines as β-Amyloid PET Ligands and Identification of MK-3328” (ACS Med Chem Lett, 2011)
Calls of active or inactive are those of the source. The calls are words filed in the database; no cut-off is given here.

Legend:
[1] = molecular target: T1, Amyloid-beta precursor protein (Homo sapiens, UniProt P05067); assay: […] amyloid beta plaque in cortex homogenate isolated from Alzheimer disease patient after 90 mins by scintillation counting; format: tissue-based; conditions: for Bmax: tested as the 3H-labelled form
P-gp = assay: Activity at human P-gp expressed in LLC-PK1 cells assessed as efflux ratio of apparent permeability; format: ADME, cell-based
P-gp (Homo sapiens) = assay: Activity at human P-gp expressed in pig LLC-PK1 cells assessed as passive apparent permeability
[2] = molecular target: T1, Amyloid-beta precursor protein; assay: Binding affinity to human amyloid beta plaque
[3] = molecular target: T1, Amyloid-beta precursor protein; assay: Binding affinity to amyloid beta plaque in cortex homogenate isolated from Alzheimer disease patient at 5 nM after 90 mins by autoradiography; format: tissue-based; conditions: tested as the 3H-labelled form
[4] = molecular target: T1, Amyloid-beta precursor protein; assay: Ratio of Bmax to Kd for amyloid beta plaque in cortex homogenate isolated from Alzheimer disease patient; format: tissue-based; conditions: tested as the 3H-labelled form
[5] = molecular target: T1, Amyloid-beta precursor protein; assay: […] amyloid beta plaque in cortex homogenate isolated from Alzheimer disease patient at 6.4 nM after 90 mins by scintillation counting in presence of 5-Fluoro-2-(1-methyl-1H-indol-5-yl)-oxazolo[5,4-b]pyridine; format: tissue-based; conditions: tested as the 3H-labelled form
[6] = Drug uptake in rhesus monkey cortex up to 90 mins; format: ADME, tissue-based, Macaca mulatta; conditions: in vivo, 1.5 h
Brain = assay: Drug uptake in rhesus monkey brain white matter up to 90 mins; format: ADME, tissue-based, Macaca mulatta; conditions: in vivo, 1.5 h
[7] = Drug uptake in rhesus monkey cortex after 90 mins; format: ADME, tissue-based, Macaca mulatta; conditions: in vivo, 1.5 h
[8] = Drug uptake in rhesus monkey cerebellum up to 90 mins; format: ADME, tissue-based, Macaca mulatta; conditions: in vivo, 1.5 h
[9] = Drug uptake in rhesus monkey cerebellum after 90 mins; format: ADME, tissue-based, Macaca mulatta; conditions: in vivo, 1.5 h
[10] = molecular target: T1, Amyloid-beta precursor protein; assay: […] amyloid beta plaque in cortex homogenate isolated from Alzheimer disease patient at 9.6 nM after 90 mins by scintillation counting in presence of 5-Fluoro-2-(1-methyl-1H-pyrrolo[2,3-b]pyridin-5-yl)-oxazolo[5,4-b]pyridine; format: tissue-based; conditions: tested as the 3H-labelled form
[11] = molecular target: T1, Amyloid-beta precursor protein; assay: […] amyloid beta plaque in cortex homogenate isolated from Alzheimer disease patient at 4.2 nM after 90 mins by scintillation counting in presence of [4-(5-Fluoro-oxazolo[5,4-b]pyridin-2-yl)-phenyl]-dimethyl-amine; format: tissue-based; conditions: tested as the 3H-labelled form

T1 sequence (P05067 whole entry): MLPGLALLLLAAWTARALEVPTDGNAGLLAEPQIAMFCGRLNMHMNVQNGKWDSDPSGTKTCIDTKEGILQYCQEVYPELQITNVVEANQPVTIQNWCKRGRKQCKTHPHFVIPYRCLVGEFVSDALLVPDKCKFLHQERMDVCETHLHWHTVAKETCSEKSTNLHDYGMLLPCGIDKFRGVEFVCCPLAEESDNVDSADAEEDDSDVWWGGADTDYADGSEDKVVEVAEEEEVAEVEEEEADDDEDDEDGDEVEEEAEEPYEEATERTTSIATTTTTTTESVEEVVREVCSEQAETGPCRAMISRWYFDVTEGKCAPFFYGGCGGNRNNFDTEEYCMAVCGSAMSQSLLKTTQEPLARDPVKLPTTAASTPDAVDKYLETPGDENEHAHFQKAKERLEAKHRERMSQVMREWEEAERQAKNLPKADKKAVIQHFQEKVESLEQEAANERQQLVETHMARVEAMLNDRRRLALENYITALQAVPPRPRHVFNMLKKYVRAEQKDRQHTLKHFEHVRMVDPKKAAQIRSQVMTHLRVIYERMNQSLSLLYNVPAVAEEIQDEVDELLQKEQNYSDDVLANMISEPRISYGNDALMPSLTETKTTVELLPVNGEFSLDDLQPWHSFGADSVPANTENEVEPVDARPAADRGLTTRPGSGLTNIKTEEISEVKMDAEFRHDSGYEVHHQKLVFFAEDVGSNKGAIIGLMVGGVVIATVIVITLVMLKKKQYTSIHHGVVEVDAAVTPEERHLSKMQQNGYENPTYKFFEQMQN

efflux ratio (P-gp)	Papp (P-gp (Homo sapiens)) [×10⁻⁶ cm/s]	IC50 [2] [nM]	Compound	also measured
			[3H]C([3H])([3H])N(C)c1ccc(-c2nc3ccc(F)nc3o2)cc1	Kd [1]: 4.5 nM
< 3	> 20	48.7	Cn1ncc2cc(-c3nc4ccc(F)nc4o3)ccc21	
< 3	> 20	25.7	Fc1ccc2nc(-c3cnc4[nH]ccc4c3)oc2n1	
< 3	> 20	45.3	Fc1ccc2nc(-c3ccc4cc[nH]c4c3)oc2n1	
< 3	> 20	13.8	Fc1ccc2nc(-c3ccc4[nH]ccc4c3)oc2n1	
			[3H]C([3H])([3H])n1ccc2cc(-c3nc4ccc(F)nc4o3)ccc21	Kd [1]: 6.4 nM
< 3	> 20	8	Cn1ccc2cc(-c3nc4ccc(F)nc4o3)ccc21	Activity [3]: inactive; Bmax [1]: 1450 nM; Ratio [4]: 232; Activity [5]: 50%
			Cn1ccc2cc(-c3nc4ccc([18F])nc4o3)cnc21	SUV [6]: 2.7; Drug uptake (Brain): Not Active; Drug uptake [7]: Not Active; SUV [8]: 3; Drug uptake [9]: Not Active
< 3	> 20	30.2	Cn1ncc2cc(-c3nc4ccc(F)nc4o3)cnc21	
< 3	> 20	35.8	Fc1ccc2nc(-c3ccc4ncsc4c3)oc2n1	
< 3	> 20	32.5	COc1ccc(-c2nc3ccc(F)nc3o2)cc1	
< 3	> 20	> 1000	Cn1cnc2cc(-c3nc4ccc(F)nc4o3)ccc21	
< 3	> 20	47	CN1CCc2cc(-c3nc4ccc(F)nc4o3)cnc21	
< 3	> 20	23.1	CNc1ccc(-c2nc3ccc(F)nc3o2)cc1	
< 3	> 20	10.5	Cn1ccc2cc(-c3nc4ccc(F)nc4o3)cnc21	Activity [3]: Active; Bmax [1]: 1100 nM; Activity [10]: 35%; Ratio [4]: 117
< 3	> 20	4	CN(C)c1ccc(-c2nc3ccc(F)nc3o2)cc1	Activity [3]: Active; Bmax [1]: 2090 nM; Ratio [4]: 464; Activity [11]: 50%
< 3	> 20	102	CNc1ccc(-c2nc3ccc(F)nc3o2)cn1	
< 3	> 20	> 1000	Cn1ccc2cc(-c3nc4ccc(F)nc4o3)ncc21	
			[3H]C([3H])([3H])n1ccc2cc(-c3nc4ccc(F)nc4o3)cnc21	Kd [1]: 9.6 nM
< 3	> 20	41.8	CN(C)c1ccc(-c2nc3ccc(F)nc3o2)cn1	
